In brackets after ≈: the same amount, converted by molar mass. Like-named read-outs stand apart in the source and are kept apart here.
Key:
[1] = system: Mycobacterium tuberculosis H37Rv; assay: Inhibition of growth of Mycobacterium tuberculosis (microplate Alamar Blue assay); type: cell-based; conditions: read-out: in vitro antibacterial activity M. tuberculosis H37Rv MIC
[2] = biological target: E. coli RNA polymerase σ70 holoenzyme (Escherichia coli, UniProt P0A8T7+P0A8V2); assay: Fluorescence-detected inhibition of bacterial RNA polymerase; type: biochemical
Sequence of E. coli RNA polymerase σ70 holoenzyme (P0A8V2 whole entry, the tested form may be a part): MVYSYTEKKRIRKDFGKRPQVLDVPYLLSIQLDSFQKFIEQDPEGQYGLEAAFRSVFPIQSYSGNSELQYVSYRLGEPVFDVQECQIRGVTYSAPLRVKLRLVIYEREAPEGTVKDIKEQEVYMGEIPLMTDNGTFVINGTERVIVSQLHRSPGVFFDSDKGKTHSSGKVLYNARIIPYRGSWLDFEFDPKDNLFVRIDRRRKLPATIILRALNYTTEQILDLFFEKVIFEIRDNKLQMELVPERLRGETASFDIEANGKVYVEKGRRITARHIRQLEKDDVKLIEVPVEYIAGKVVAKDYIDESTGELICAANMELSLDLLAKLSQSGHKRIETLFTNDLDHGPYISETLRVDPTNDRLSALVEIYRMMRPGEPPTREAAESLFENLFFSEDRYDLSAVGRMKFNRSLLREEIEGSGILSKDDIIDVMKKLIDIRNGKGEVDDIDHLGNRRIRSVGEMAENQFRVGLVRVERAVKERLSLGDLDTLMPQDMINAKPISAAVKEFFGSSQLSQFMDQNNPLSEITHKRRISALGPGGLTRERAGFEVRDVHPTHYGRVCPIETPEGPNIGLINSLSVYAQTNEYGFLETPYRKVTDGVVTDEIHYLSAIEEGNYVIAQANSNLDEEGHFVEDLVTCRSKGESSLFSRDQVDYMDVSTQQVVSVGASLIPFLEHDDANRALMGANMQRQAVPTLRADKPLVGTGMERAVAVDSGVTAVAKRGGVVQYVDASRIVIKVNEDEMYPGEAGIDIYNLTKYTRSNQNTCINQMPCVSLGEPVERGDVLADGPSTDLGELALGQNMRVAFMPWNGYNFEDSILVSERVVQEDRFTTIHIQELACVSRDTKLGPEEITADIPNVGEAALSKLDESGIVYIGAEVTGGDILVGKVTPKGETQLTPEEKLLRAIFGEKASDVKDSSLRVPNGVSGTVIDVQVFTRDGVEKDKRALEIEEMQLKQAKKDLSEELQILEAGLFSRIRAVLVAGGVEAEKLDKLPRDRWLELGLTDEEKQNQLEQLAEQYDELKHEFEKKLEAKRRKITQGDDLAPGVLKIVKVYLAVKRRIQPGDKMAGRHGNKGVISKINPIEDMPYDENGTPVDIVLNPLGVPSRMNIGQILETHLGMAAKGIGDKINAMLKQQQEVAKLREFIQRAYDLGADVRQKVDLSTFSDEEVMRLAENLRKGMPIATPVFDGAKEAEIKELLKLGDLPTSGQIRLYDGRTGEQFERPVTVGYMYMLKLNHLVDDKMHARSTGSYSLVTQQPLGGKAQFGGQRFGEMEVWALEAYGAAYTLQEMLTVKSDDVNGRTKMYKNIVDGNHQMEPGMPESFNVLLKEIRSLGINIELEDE
Sequence of E. coli RNA polymerase σ70 holoenzyme (P0A8T7 whole entry, the tested form may be a part): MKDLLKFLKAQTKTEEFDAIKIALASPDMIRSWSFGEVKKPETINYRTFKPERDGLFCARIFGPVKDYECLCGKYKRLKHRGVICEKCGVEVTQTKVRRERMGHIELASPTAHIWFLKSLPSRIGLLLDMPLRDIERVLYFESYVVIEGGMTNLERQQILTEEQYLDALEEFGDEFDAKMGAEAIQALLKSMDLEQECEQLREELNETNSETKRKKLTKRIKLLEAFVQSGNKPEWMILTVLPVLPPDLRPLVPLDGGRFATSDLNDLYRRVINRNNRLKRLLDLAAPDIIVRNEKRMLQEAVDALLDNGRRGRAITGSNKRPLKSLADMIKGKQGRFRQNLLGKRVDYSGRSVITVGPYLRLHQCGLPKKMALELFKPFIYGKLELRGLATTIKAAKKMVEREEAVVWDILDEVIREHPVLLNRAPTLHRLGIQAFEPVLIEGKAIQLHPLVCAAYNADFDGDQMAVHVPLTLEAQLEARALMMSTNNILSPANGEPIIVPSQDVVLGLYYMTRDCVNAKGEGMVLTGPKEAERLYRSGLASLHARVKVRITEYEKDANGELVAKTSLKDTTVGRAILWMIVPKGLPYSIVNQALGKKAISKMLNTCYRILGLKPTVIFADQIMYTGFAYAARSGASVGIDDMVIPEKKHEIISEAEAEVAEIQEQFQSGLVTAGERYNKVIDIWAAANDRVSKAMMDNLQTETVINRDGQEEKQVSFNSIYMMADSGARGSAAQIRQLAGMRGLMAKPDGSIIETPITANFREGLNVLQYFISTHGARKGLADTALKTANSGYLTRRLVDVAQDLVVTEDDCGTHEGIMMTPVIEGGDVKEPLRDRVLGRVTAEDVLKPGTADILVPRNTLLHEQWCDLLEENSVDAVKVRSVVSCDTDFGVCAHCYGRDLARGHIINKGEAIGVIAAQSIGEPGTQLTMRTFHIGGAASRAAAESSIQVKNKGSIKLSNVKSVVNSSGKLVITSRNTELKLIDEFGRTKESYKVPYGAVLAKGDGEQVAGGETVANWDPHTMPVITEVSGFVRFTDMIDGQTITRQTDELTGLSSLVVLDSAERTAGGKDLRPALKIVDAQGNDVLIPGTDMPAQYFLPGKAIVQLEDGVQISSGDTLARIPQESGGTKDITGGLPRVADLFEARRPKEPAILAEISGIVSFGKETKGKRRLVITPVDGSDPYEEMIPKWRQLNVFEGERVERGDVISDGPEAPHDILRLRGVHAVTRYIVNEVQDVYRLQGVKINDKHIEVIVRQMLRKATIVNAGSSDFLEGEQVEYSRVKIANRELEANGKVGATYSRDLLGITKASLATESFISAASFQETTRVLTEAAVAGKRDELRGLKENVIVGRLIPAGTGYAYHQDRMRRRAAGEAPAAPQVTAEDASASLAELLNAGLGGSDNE
Sequence of E. coli RNA polymerase σ70 holoenzyme (P0A7Z4 whole entry partner, the tested form may be a part): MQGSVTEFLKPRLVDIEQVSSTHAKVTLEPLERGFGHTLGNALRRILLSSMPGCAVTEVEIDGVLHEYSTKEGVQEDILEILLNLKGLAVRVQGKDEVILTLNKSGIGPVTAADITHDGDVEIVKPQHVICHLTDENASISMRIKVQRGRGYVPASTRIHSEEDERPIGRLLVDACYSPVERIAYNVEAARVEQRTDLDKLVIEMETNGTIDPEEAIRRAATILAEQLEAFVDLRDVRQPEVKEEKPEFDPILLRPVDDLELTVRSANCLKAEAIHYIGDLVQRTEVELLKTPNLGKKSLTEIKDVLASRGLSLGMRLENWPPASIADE
Sequence of E. coli RNA polymerase σ70 holoenzyme (P0A800 2-91 partner limits assumed): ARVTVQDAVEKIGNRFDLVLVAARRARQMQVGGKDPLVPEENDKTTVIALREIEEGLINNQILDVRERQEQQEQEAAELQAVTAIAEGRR
Sequence of E. coli RNA polymerase σ70 holoenzyme (P00579 whole entry partner, the tested form may be a part): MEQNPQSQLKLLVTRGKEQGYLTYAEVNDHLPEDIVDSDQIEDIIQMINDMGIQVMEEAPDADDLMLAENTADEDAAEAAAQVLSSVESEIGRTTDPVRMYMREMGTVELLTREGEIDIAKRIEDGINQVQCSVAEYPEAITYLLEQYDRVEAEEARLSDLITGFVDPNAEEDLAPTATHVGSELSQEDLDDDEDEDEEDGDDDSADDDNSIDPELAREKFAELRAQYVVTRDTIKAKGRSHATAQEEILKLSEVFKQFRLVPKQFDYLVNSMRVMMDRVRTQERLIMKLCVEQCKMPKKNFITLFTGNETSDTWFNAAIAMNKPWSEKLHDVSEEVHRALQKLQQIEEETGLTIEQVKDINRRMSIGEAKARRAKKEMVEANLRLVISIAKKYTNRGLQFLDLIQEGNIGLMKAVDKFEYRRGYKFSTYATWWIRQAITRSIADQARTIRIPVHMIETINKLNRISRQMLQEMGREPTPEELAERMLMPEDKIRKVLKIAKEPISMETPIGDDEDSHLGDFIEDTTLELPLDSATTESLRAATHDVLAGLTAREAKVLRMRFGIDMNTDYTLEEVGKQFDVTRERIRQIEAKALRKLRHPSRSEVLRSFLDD
Method: Fluorescence-detected RNA polymerase assays with E. coli RNA polymerase were performed by a modification of the procedure of Kuhlman et al., 2004 [Kuhlman, P., Duff, H. & Galant, A. (2004) A fluorescence-based assay for multisubunit DNA-dependent RNA polymerases. Anal. Biochem. 324, 183-190]. Reaction mixtures contained (20 μl): 0-100 nM test compound, 75 nM E. coli RNA polymerase σ^70holoenzyme, 20 nM 384 bp DNA fragment containing the bacteriophage T4 N25 promoter, 100 μM ATP, 100 μM GTP, 100 μM UTP, 100 μM CTP, 50 mM Tris-HCl, pH 8.0, 100 mM KCl, 10 mM MgCl2, 1 mM DTT, 10 μg/ml bovine serum albumin, and 5.5% glycerol. Reaction components other than DNA and NTPs were pre-incubated for 10 min at 37° C. Reactions were carried out by addition of DNA and incubation for 5 min at 37° C., followed by addition of NTPs and incubation for 60 min at 37° C. DNA was removed by addition of 1 μl 5 mM CaCl2 and 2 U DNaseI (Ambion, Inc.), followed by incubation for 90 min at 37° C. RNA was quantified by addition of 100 μl RiboGreen RNA Quantitation Reagent (Invitrogen, Inc.; 1:500 dilution in Tris-HCl, pH 8.0, 1 mM EDTA), followed by incubation for 10 min at 25° C., followed by measurement of fluorescence intensity [excitation wavelength=485 nm and emission wavelength=535 nm; QuantaMaster QM1 spectrofluorometer (PTI, Inc.)]. IC50 is defined as the concentration of inhibitor resulting in 50% inhibition of RNA polymerase activity.

[3] = Metabolic stability, human liver microsomes; type: in vitro ADME; conditions: human liver microsomes (male) 1 mg/ml, 1 mM NADPH, pH 7.4, 37° C.
Method: (§1) Test compounds were incubated with mouse liver microsomes (CD-1; male and female pooled; 1 mg/ml) or human liver microsomes (male; 1 mg/ml) in 50 mM potassium phosphate, pH 7.4, and 1 mM NADPH at 37° C. Aliquots were removed at 0, 15, 30, 60, 90 and 120 min, and amounts of test compounds remaining were determined by LC-MS/MS. Half lives (t0.5) were calculated as t0.5=−0.693/k, where k is the slope of the linear regression of the natural logarithms of percentages of test compounds remaining vs. time.

[4] = system: Staphylococcus aureus ATCC 12600; assay: Inhibition of growth of Staphylococcus aureus (spiral gradient endpoint assay); type: cell-based; conditions: read-out: in vitro antibacterial activity S. aureus ATCC 12600 MIC
Excerpt: Minimum inhibitory concentrations (MICs) for Staphylococcus aureus ATCC 12600 were quantified using spiral gradient endpoint assays, essentially as described [Wallace, A. and Corkill, J. (1989) Application of the spiral plating method to study antimicrobial action. J. Microbiol. Meths. 10, 303-310; Paton, J., Holt, A., and Bywater, M. (1990) Measurement of MICs of antibacterial agents by spiral gradient endpoint compared with conventional dilution methods. Int. J. Exp. Clin. Chemother. 3, 31-38; Schalkowsky S. (1994) Measures of susceptibility from a spiral gradient of drug concentrations. Adv. Exp. Med. Biol. 349, 107-120]. Assays employed exponential-gradient plates containing 150 mm×4 mm Mueller-Hinton II cation-adjusted agar and 0.4-100 μg/ml of test compound. Plates were prepared using an Autoplate 4000 spiral plater (Spiral Biotech, Inc.). Saturated overnight cultures were swabbed radially onto plates, and plates were incubated for 16 h at 37° C. For each culture, the streak length was measured using a clear plastic template (Spiral Biotech, Inc.), the test-compound concentration at the streak endpoint was calculated using the program SGE (Spiral Biotech, Inc.), and the MIC was defined as the calculated test-compound concentration at the streak endpoint.

[5] = Metabolic stability, mouse liver microsomes; type: in vitro ADME; conditions: CD-1 mouse liver microsomes 1 mg/ml, 1 mM NADPH, pH 7.4, 37° C.
Method: as §1

[6] = In vivo pharmacokinetics in mice (intravenous administration); conditions: CD-1 mice, 2.5 mg/kg
Method: Test compounds (2.5 mg/kg; 0.1 ml of 0.625 mg/ml solution in 5% dimethylacetamide and 4% Cremophor EL in 100 mM sodium phosphate, pH 7.4) were administered to mice (CD-1; […]; n=3) by intravenous injection into a tail vein at t=0 h. Blood samples were collected by tail-vein bleed (CB 300 K2E tubes; Sarstedt) at t=0.02, 0.05, 1, 3, 5, and 8 h, and plasma concentrations of test compounds were determined by LC-MS/MS.

[7] = ATCC12600, spiral gradient endpoint assay, 16 h at 37° C.
[8] = 75 nM E. coli RNAP holoenzyme, RiboGreen fluorescence, read-out: in vitro RNAP-inhibitory activity E. coli RNAP IC50

Row | Compound | MIC [1] | IC50 [2] | human liver microsome t0.5 [3] | MIC [4, 7] | IC50 [2, 8] | mouse liver microsome t0.5 [5] | plasma t0.5 [6] | MIC ([4]; ATCC12600, 16 h)
1 | [2H]C([2H])([2H])OC(=O)N/C=C/CCCc1cc([O-])c(C(=O)/C(C)=C/c2cnc(Oc3ccc(-c4ccccc4)cc3)s2)c(=O)o1.[Na+] [Example 17] | > 50 µg/mL | 49 nM |  |  |  |  |  | 
2 | [2H]C([2H])([2H])OC(=O)N/C=C/CCC(C)c1cc(O)c(C(=O)/C(C)=C/c2sc(Oc3ccc(F)cc3)nc2C)c(=O)o1 (centres unmarked) [Example 4] |  |  | 16 min | 0.24 µg/mL (≈ 0.44 µM) | 6.8 nM | 59 min | 2.7 h | 
3 | COC(=O)N/C=C/CCC(C)c1cc(O)c(C(=O)/C(C)=C/c2sc(Oc3ccc(F)cc3)nc2C)c(=O)o1 (centres unmarked) [Example 1] | 3.12 µg/mL (≈ 5.76 µM) |  | 8.3 min | 0.35 µg/mL (≈ 0.645 µM) | 5.6 nM | 21 min | 2.7 h | 
4 | [2H]C([2H])([2H])OC(=O)N/C=C/CCCc1cc(O)c(C(=O)/C(C)=C/c2cnc(Oc3ccc(F)c(Br)c3)s2)c(=O)o1 [Example 18] | 0.78 µg/mL (≈ 1.31 µM) |  |  | 0.35 µg/mL (≈ 0.587 µM) | 1.6 nM |  |  | 
5 | [2H]C([2H])([2H])OC(=O)N/C=C/CCC(C)c1cc(O)c(C(=O)/C(C)=C/C=C(\C)CCC(F)(F)F)c(=O)o1 (centres unmarked) [Example 13] |  |  | 33 min |  | 23 nM | >120 min |  | 
6 | [2H]C([2H])([2H])OC(=O)N/C=C/CCCc1cc(O)c(C(=O)/C(C)=C/c2cnc(Oc3ccc(-c4ccccc4)cc3)s2)c(=O)o1 [Example 16] | > 50 µg/mL |  | 44 min | > 8 µg/mL | 18 nM | 46 min |  | 
7 | [2H]C([2H])([2H])OC(=O)N/C=C/CCC(C)c1cc(O)c(C(=O)/C(C)=C/C=C(\C)CCCC)c(=O)o1 (centres unmarked) [Example 12] |  |  | 4.2 min |  |  | 66 min |  | 
8 | [2H]C([2H])([2H])OC(=O)N/C=C/CCCc1cc(O)c(C(=O)/C(C)=C/c2cnc(Oc3ccc(F)c(Cl)c3)s2)c(=O)o1 [Example 14] | 0.78 µg/mL (≈ 1.41 µM) |  | 21 min | 0.19 µg/mL (≈ 0.344 µM) | 2.9 nM | 65 min | 1.8 h | 
9 | COC(=O)N/C=C/CCCc1cc(O)c(C(=O)/C(C)=C/c2sc(Oc3ccc(F)cc3)nc2C)c(=O)o1 [Example 3] | 1.56 µg/mL (≈ 2.95 µM) |  | 5.6 min | 0.17 µg/mL (≈ 0.322 µM) | 4.5 nM | 110 min | 2.5 h | 
10 | COC(=O)N/C=C/CCC(C)c1cc(O)c(C(=O)/C(C)=C/C=C(\C)CCC(F)(F)F)c(=O)o1 (centres unmarked) [Example 11, reference compound] |  |  | 25 min |  | 12 nM | 100 min |  | 
11 | [2H]C([2H])([2H])OC(=O)N/C=C/CCCc1cc(O)c(C(=O)/C(C)=C/c2sc(Oc3ccc(F)cc3)nc2C)c(=O)o1 [Example 7] | 0.78 µg/mL (≈ 1.47 µM) |  | 8.3 min | 0.19 µg/mL (≈ 0.357 µM) | 2 nM | >120 min | 2.6 h | 
12 | [2H]C([2H])([2H])OC(=O)N/C=C/CCC(C)c1cc(O)c(C(=O)/C(C)=C/c2cnc(Oc3ccc(F)cc3)s2)c(=O)o1 (centres unmarked) [Example 5] | 1.56 µg/mL (≈ 2.93 µM) |  | 21 min | 0.3 µg/mL (≈ 0.564 µM) | 5.3 nM | >120 min | 3.0 h | 
13 | [2H]C([2H])([2H])OC(=O)N/C=C/CCCc1cc(O)c(C(=O)/C(C)=C/c2cnc(Oc3ccc(F)c(F)c3)s2)c(=O)o1 [Example 20] | 0.78 µg/mL (≈ 1.46 µM) |  |  | 0.26 µg/mL (≈ 0.485 µM) | 3 nM |  |  | 
14 | COC(=O)N/C=C/CCC(C)c1cc(O)c(C(=O)/C(C)=C/c2cnc(Oc3ccc(F)cc3)s2)c(=O)o1 (centres unmarked) [Example 2] | 3.12 µg/mL (≈ 5.91 µM) |  | 14 min | 0.5 µg/mL (≈ 0.946 µM) | 9.6 nM | 60 min | 2.8 h | 
15 | CCCC/C(C)=C/C=C(\C)C(=O)c1c(O)cc(C(C)CC/C=C/NC(=O)OC)oc1=O (racemic) [Example 10, (±)Myxopyronin B, reference compound] |  |  | 1.7 min |  | 13 nM | 21 min |  | 
16 | [2H]C([2H])([2H])OC(=O)N/C=C/CCCc1cc([O-])c(C(=O)/C(C)=C/c2cnc(Oc3ccc(F)c(Cl)c3)s2)c(=O)o1.[Na+] [Example 15] | 0.78 µg/mL | 2.9 nM |  |  |  |  |  | 0.17 µg/mL
17 | [2H]C([2H])([2H])OC(=O)N/C=C/CCCc1cc(O)c(C(=O)/C(C)=C/c2cnc(Oc3ccc(F)c(-c4ccccc4)c3)s2)c(=O)o1 [Example 19] | 25 µg/mL (≈ 42.1 µM) |  |  | 0.93 µg/mL (≈ 1.57 µM) | 1.2 nM |  |  | 
18 | [2H]C([2H])([2H])OC(=O)N/C=C/CCCc1cc(O)c(C(=O)/C(C)=C/c2cnc(Oc3ccc(F)cc3)s2)c(=O)o1 [Example 8] | 0.78 µg/mL (≈ 1.51 µM) |  | 21 min | 0.25 µg/mL (≈ 0.483 µM) | 3 nM | >120 min | 2.7 h | 
19 | [2H]C([2H])([2H])OC(=O)N/C=C/CCCc1cc([O-])c(C(=O)/C(C)=C/c2cnc(Oc3ccc(F)cc3)s2)c(=O)o1.[Na+] [Example 9] | 0.39 µg/mL | 3 nM | 29 min |  |  | >120 min | 3.9 h | 0.41 µg/mL
20 | COC(=O)N/C=C/CCCc1cc(O)c(C(=O)/C(C)=C/c2cnc(Oc3ccc(F)cc3)s2)c(=O)o1 [Example 6] | 0.78 µg/mL (≈ 1.52 µM) |  | 8.6 min | 0.73 µg/mL (≈ 1.42 µM) | 8.4 nM | >120 min | 2.4 h | 
